Results: US5036080A, “(D)-6-fluoro-2,3-dihydro-2',5-dioxo-spiro[4H-1-benzo pyran-4,4'-imidazolide]-2-carboxamide compounds” (Sanwa Kagaku Kenyusho Co., Ltd., priority 1988, dated 1991)
pIC50: −log10 of the molar value.

Tests used:
[1] = system: aldose reductase; conditions: cited from earlier work
[2] = target: T1, aldose reductase (Rattus norvegicus, UniProt P07943); test: Inhibition of aldose reductase activity (procedure of Kador and Sharpless); type: biochemical; conditions: water-soluble extracts of crystalline lenses from rats
T1 construct: water-soluble extracts of crystalline lenses extracted from tested rats; from tissue; host or cells: rat crystalline lens, water-soluble extract
Description: Using water-soluble extracts of crystalline lenses extracted from tested rats, the inhibition of these compounds was determined.

Row | pIC50 [2] | Structure (SMILES) | activity of inhibition to the aldose reductase in vitro and vivo tests, in comparison with other agents (in words) [1]
1 | – | NC(=O)[C@H]1CC2(NC(=O)NC2=O)c2cc(F)ccc2O1 (single isomer, unassigned) [(d)-6-fluoro-2,3-dihydro-2',5'-dioxo-spiro[4H-1-benzopyran-4,4'-imidazolidine]-2-carboxamide] | remarkable activity of inhibition to the aldose reductase
2 | 7.35 | COC(=O)N1C(=O)NC2(CC(C(N)=O)Oc3ccc(F)cc32)C1=O (single isomer, unassigned) [Example 3] | –
3 | 4.00 | CC(C)(C)C(=O)OCN1C(=O)NC2(C[C@H](C(N)=O)Oc3ccc(F)cc32)C1=O (single isomer, unassigned) [Example 6, (d)-6-Fluoro-1'-pivaloyloxymethyl-2,3-dihydro-2',5'-dioxo-spiro[4H-1-benzopyran-4,4'-imidazolidine]-2-carboxamide] | –
4 | 4.00 | Cc1ccc(S(=O)(=O)N2C(=O)NC3(C[C@H](C(N)=O)Oc4ccc(F)cc43)C2=O)cc1 (single isomer, unassigned) [Example 16-A, (d)-6-fluoro-1'-(p-toluenesulfonyl)-2,3-dihydro-2',5'-dioxo-spiro[4H-1-benzopyran-4,4'-imidazolidine]-2-carboxamide] | –
